These are literature values, as cited in patent US20080287507A1, “Nicotine containing toiletry waters” (priority 2007, published 2008).

The structures appear in SMILES notation.

The conditions of data set [1]: smoking a cigarette.

As for `CN1CCCC1c1cccnc1` (centres unmarked) [Nicotine, 3-(1-methyl-2-pyrrolidinyl)-pyridine], the “single dose that may kill an adult” value is given as “Approximately 40 milligrams”. Besides, the “time for nicotine to reach the brain after inhalation” value in data set [1] is given as “around ten”.
